According to publication PMC10648875 (Antimicrobial Agents and Chemotherapy, 2023):
Converted amounts (≈) assume the structure as drawn. “And” between values parts separate entries of the source, which are not always exact repeats. Equal values may be shown once. Read-outs that look alike come from different tables or passages of the source.

Tests used:
PAM4876 producing OXA-72 = experiment: MIC, engineered isogenic strain; type: cell-based, P. aeruginosa; details: OXA-72, class D; BLIs at fixed 4 µg/mL
[1] = tested on: carbapenem-resistant strains of Enterobacterales with cefepime-taniborbactam MIC >8 µg/mL; experiment: MIC testing of CRE with reduced cefepime-taniborbactam susceptibility (Table 6, Fig 1); type: cell-based
Method: (§1) Isolates were tested for antimicrobial susceptibility using the broth microdilution methodology per CLSI M07 (2018) guidelines ([40]). JMI Laboratories produced frozen-form 96-well panels with cation-adjusted Mueller-Hinton broth as the testing medium. Current CLSI quality assurance practices were followed when performing the susceptibility tests. MIC values were validated by concurrently testing the following CLSI-recommended ([27]) QC reference strains: E. coli NCTC 13353 (CTX-M-15), Klebsiella pneumoniae ATCC BAA-2814 (KPC-3), Klebsiella pneumoniae ATCC BAA-1705 (KPC-2), and K. pneumoniae ATCC 700603 (SHV-18). The inoculum density during susceptibility testing was monitored by bacterial colony counts. Where applicable, QC ranges for tested reference strains were those approved or published by the CLSI ([27]).

[2] = tested on: PAM4884 producing ADC-181; experiment: MIC, engineered isogenic strain; type: cell-based, P. aeruginosa; details: ADC-181, class C; BLIs at fixed 4 µg/mL
[3] = tested on: surveillance isolates of carbapenem-resistant strains of Enterobacterales; experiment: MIC testing of SENTRY surveillance CRE isolates (Table 4, Table S4); type: cell-based; details: for % Inhibited: at ≤8 µg/mL β-lactam (IMP/REL ≤1/4, MEM/VAB ≤4/8 (≤8/8) µg/mL), footnote b
PAM4879 producing CcrA = experiment: MIC, engineered isogenic strain; type: cell-based, P. aeruginosa; details: class B, BLIs at fixed 4 µg/mL
[4] = tested on: Escherichia coli NCTC 13353 (ECM7514), CTX-M-15; experiment: MIC, reference strain; type: cell-based; details: for MIC: Escherichia coli, NCTC13353, CTX-M-15, BLI at the fixed concentration in brackets, read-out: MIC
Method: (§2) Other BL/BLI combinations were tested at their recommended BLI concentrations. MIC values for the partner antibiotics and BLIs alone were also determined (Table 2; Table S1). All investigational and marketed BLIs enhanced the potency of antibiotics according to their spectrum of inhibition. MIC values against CLSI-approved QC strains were within acceptable ranges for drugs and combinations tested (Table 3).
as §1, with “([27]). Meropenem was purchased from Carbosynth; ceftolozane was synthesized at Acme Bioscience, Palo Alto, CA, USA; all other antibiotics were from Sigma Aldrich. Xeruborbactam was synthesized at Qpex Biopharma, San Diego, CA, USA. Avibactam was purchased from eNovation, Chemicals LLC, Bridgewater, NJ, USA. Vaborbactam was synthesized at The Medicines Company, San Diego, CA. Relebactam, taniborbactam, and […] were synthesized at Acme Bioscience.” for “([27]).”

[5] = tested on: P. aeruginosa BAA-3197 (PA5257), KPC-2; experiment: MIC, reference strain; type: cell-based; details: for MIC: Pseudomonas aeruginosa, BAA3197, KPC-2, BLI at the fixed concentration in brackets, read-out: MIC
PAM4800 producing GES-19 = experiment: MIC, engineered isogenic strain; type: cell-based, P. aeruginosa; details: GES-19, class A; BLIs at fixed 4 µg/mL
PAM4801 producing GES-20 = experiment: MIC, engineered isogenic strain; type: cell-based, P. aeruginosa; details: GES-20, class A; BLIs at fixed 4 µg/mL
[6] = tested on: E. coli CDC 0069 (EC1106), NDM-1; experiment: MIC, reference strain; type: cell-based; details: Escherichia coli, BLI at the fixed concentration in brackets, read-out: MIC
Method: as §2, §1

[7] = tested on: Klebsiella pneumoniae ATCC 700603 (KPM2881), SHV-18; experiment: MIC, reference strain; type: cell-based; details: for MIC: Klebsiella pneumoniae, ATCC700603, SHV-18, BLI at the fixed concentration in brackets, read-out: MIC
Method: as §2, §1

[8] = tested on: K. pneumoniae ATCC BAA-2814 (KP1074), KPC-3; experiment: MIC, reference strain; type: cell-based; details: for MIC: Klebsiella pneumoniae, ATCCBAA2814, KPC-3, BLI at the fixed concentration in brackets, read-out: MIC; for MIC (number of observations): Table S1, repeated QC testing
Method: as §2, §1

[9] = tested on: K. pneumoniae ATCC BAA-1705 (KPM1123), KPC-2; experiment: MIC, reference strain; type: cell-based; details: for MIC: Klebsiella pneumoniae, ATCCBAA1705, KPC-2, BLI at the fixed concentration in brackets, read-out: MIC; for MIC (number of observations): Table S1, repeated QC testing
Method: as §2, §1

[10] = tested on: K. pneumoniae CDC 0135 (KP1291), VIM-1; experiment: MIC, reference strain; type: cell-based; details: Klebsiella pneumoniae, BLI at the fixed concentration in brackets, read-out: MIC
Method: as §2, §1

[11] = All surveillance CRE, read-out: MIC50
[12] = All surveillance CRE, read-out: MIC90
[13] = Non-CP CRE subset, read-out: MIC50
[14] = Non-CP CRE subset, read-out: MIC90

CO/N=C(\C(=O)N[C@@H]1C(=O)N2C(C(=O)[O-])=C(C[N+]3(C)CCCC3)CS[C@H]12)c1csc(N)n1 [FEP, cefepime]
MIC (PAM4876 producing OXA-72): 2 µg/mL (≈ 4.16 µM)
MIC50 [1]: 64 µg/mL
MIC90 [1]: > 64 µg/mL
MIC50 ([1]; All MBL (N = 129)): 64 µg/mL
MIC90 ([1]; All MBL (N = 129)): > 64 µg/mL
MIC50 ([1]; IMP (N = 20)): 32 µg/mL
MIC90 ([1]; IMP (N = 20)): > 64 µg/mL
MIC50 ([1]; KPC and OXA-48 (N = 12)): 64 µg/mL
MIC90 ([1]; KPC and OXA-48 (N = 12)): > 64 µg/mL
MIC50 ([1]; MBL negative (N = 34)): 64 µg/mL
MIC90 ([1]; MBL negative (N = 34)): > 64 µg/mL
MIC50 ([1]; NDN (N = 101)): 64 µg/mL
MIC90 ([1]; NDN (N = 101)): > 64 µg/mL
MIC50 ([1]; Non-CP CRE (N = 22)): 64 µg/mL
MIC90 ([1]; Non-CP CRE (N = 22)): > 64 µg/mL
MIC50 ([1]; VIM (N = 8)): > 64 µg/mL
MIC [2]: 0.5 µg/mL (≈ 1.04 µM)
MIC50 [3]: > 32 µg/mL
MIC90 [3]: > 32 µg/mL
MIC50 [3, 11]: > 32 µg/mL
MIC90 [3, 12]: > 32 µg/mL
% Inhibited ([3]; KPC subset): 11.70%
MIC50 ([3]; KPC subset, read-out: MIC50): > 32 µg/mL
MIC90 ([3]; KPC subset, read-out: MIC90): > 32 µg/mL
% Inhibited ([3]; MBL subset): 0.00%
MIC50 ([3]; MBL subset, read-out: MIC50): > 32 µg/mL
MIC90 ([3]; MBL subset, read-out: MIC90): > 32 µg/mL
% Inhibited ([3]; NDM subset): 0.00%
MIC50 ([3]; NDM subset, read-out: MIC50): > 32 µg/mL
MIC90 ([3]; NDM subset, read-out: MIC90): > 32 µg/mL
% Inhibited ([3]; No MBL subset): 15.50%
MIC50 ([3]; No MBL subset, read-out: MIC50): > 32 µg/mL
MIC90 ([3]; No MBL subset, read-out: MIC90): > 32 µg/mL
% Inhibited ([3]; Non-CP CRE subset): 15.20%
MIC50 [3, 13]: > 32 µg/mL
MIC90 [3, 14]: > 32 µg/mL
% Inhibited ([3]; OXA-48 subset): 21.50%
MIC50 ([3]; OXA-48 subset, read-out: MIC50): > 32 µg/mL
MIC90 ([3]; OXA-48 subset, read-out: MIC90): > 32 µg/mL
% Inhibited ([3]; VIM subset): 0.00%
MIC50 ([3]; VIM subset, read-out: MIC50): 32 µg/mL (≈ 66.6 µM)
MIC90 ([3]; VIM subset, read-out: MIC90): > 32 µg/mL
MIC (PAM4879 producing CcrA): 16 µg/mL (≈ 33.3 µM)
MIC [4]: > 64 µg/mL
MIC (number of observations) ([4]; Table S1, repeated QC testing): 32 (1)-64(5)->128 (10) µg/ml
MIC [5]: > 64 µg/mL
MIC (number of observations) ([5]; Table S1, repeated QC testing): > 128 µg/mL
MIC (PAM4800 producing GES-19): 64 µg/mL (≈ 133 µM)
MIC (PAM4801 producing GES-20): 2 µg/mL (≈ 4.16 µM)
MIC [6]: 64 µg/mL
MIC [7]: 1 µg/mL
MIC (number of observations) ([7]; Table S1, repeated QC testing): 0.5(1)-1(8)-2(1)-4(1) µg/ml
MIC [8]: > 64 µg/mL
MIC (number of observations) [8]: > 32 µg/mL
MIC [9]: 32 µg/mL
MIC (number of observations) [9]: 32 (40)->32(6) µg/ml
MIC [10]: > 64 µg/mL

C[C@@H](O)[C@H]1C(=O)N2C(C(=O)O)=C(S[C@@H]3CN[C@H](C(=O)N(C)C)C3)[C@H](C)[C@H]12 [MEM, meropenem]
MIC (PAM4876 producing OXA-72): 2 µg/mL (≈ 5.22 µM)
MIC50 [1]: > 64 µg/mL
MIC90 [1]: > 64 µg/mL
MIC50 ([1]; All MBL (N = 129)): > 64 µg/mL
MIC90 ([1]; All MBL (N = 129)): > 64 µg/mL
MIC50 ([1]; IMP (N = 20)): 16 µg/mL
MIC90 ([1]; IMP (N = 20)): 64 µg/mL
MIC50 ([1]; KPC and OXA-48 (N = 12)): 32 µg/mL
MIC90 ([1]; KPC and OXA-48 (N = 12)): > 64 µg/mL
MIC50 ([1]; MBL negative (N = 34)): 16 µg/mL
MIC90 ([1]; MBL negative (N = 34)): > 64 µg/mL
MIC50 ([1]; NDN (N = 101)): > 64 µg/mL
MIC90 ([1]; NDN (N = 101)): > 64 µg/mL
MIC50 ([1]; Non-CP CRE (N = 22)): 16 µg/mL
MIC90 ([1]; Non-CP CRE (N = 22)): 32 µg/mL
MIC50 ([1]; VIM (N = 8)): > 64 µg/mL
MIC [2]: 0.125 µg/mL (≈ 0.326 µM)
MIC90 [3]: 16 and > 32
% Inhibited ([3]; All surveillance CRE): 30.20%
MIC50 [3, 11]: 32 µg/mL (≈ 83.4 µM)
MIC90 [3, 12]: > 32 µg/mL
% Inhibited ([3]; KPC subset): 29.50%
MIC50 ([3]; KPC subset, read-out: MIC50): 32 µg/mL (≈ 83.4 µM)
MIC90 ([3]; KPC subset, read-out: MIC90): > 32 µg/mL
% Inhibited ([3]; MBL subset): 9.00%
MIC50 ([3]; MBL subset, read-out: MIC50): > 32 µg/mL
MIC90 ([3]; MBL subset, read-out: MIC90): > 32 µg/mL
% Inhibited ([3]; NDM subset): 6.30%
MIC50 ([3]; NDM subset, read-out: MIC50): > 32 µg/mL
MIC90 ([3]; NDM subset, read-out: MIC90): > 32 µg/mL
% Inhibited ([3]; No MBL subset): 39.40%
MIC50 ([3]; No MBL subset, read-out: MIC50): 16 µg/mL (≈ 41.7 µM)
MIC90 ([3]; No MBL subset, read-out: MIC90): > 32 µg/mL
% Inhibited ([3]; Non-CP CRE subset): 81.80%
MIC50 [3, 13]: 8 µg/mL (≈ 20.9 µM)
MIC90 [3, 14]: 16 µg/mL (≈ 41.7 µM)
% Inhibited ([3]; OXA-48 subset): 37.20%
MIC50 ([3]; OXA-48 subset, read-out: MIC50): 32 µg/mL (≈ 83.4 µM)
MIC90 ([3]; OXA-48 subset, read-out: MIC90): > 32 µg/mL
% Inhibited ([3]; VIM subset): 35.00%
MIC50 ([3]; VIM subset, read-out: MIC50): 16 µg/mL (≈ 41.7 µM)
MIC90 ([3]; VIM subset, read-out: MIC90): > 32 µg/mL
MIC (PAM4879 producing CcrA): 2 µg/mL (≈ 5.22 µM)
MIC [4]: ≤ 0.03 µg/mL
MIC [5]: > 64 µg/mL
MIC (PAM4800 producing GES-19): 1 µg/mL (≈ 2.61 µM)
MIC (PAM4801 producing GES-20): 8 µg/mL (≈ 20.9 µM)
MIC [6]: 32 µg/mL
MIC [7]: ≤ 0.03 µg/mL
MIC [8]: > 64 µg/mL
MIC (number of observations) [8]: > 32 µg/mL
MIC [9]: 32 µg/mL
MIC (number of observations) [9]: 8 (2)-16 (16)-32 (28) µg/ml
MIC [10]: 8 µg/mL
